From patent US6737383B1, “Herbicidal oxadiazolidines” (priority 1999, dated 2004)

How the values were obtained:
[1] = system: blackgrass; experiment: Test B pre/postemergence blackgrass; type: in vivo, Alopecurus myosuroides
Method in brief: (§1)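 Test chemicals in a non-phytotoxic solvent mixture with surfactant were sprayed preemergence onto planted seeds and postemergence onto plants 2 to 18 cm tall (1- to 4-leaf stage). After twelve to sixteen days in a greenhouse, injury was visually rated against untreated controls from 0 (no effect) to 10 (complete control).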

[2] = system: surinam grass; experiment: Test B pre/postemergence surinam grass; type: in vivo, Brachiaria decumbens
Method in brief: as §1

[3] = system: cocklebur; experiment: Test B pre/postemergence cocklebur; type: in vivo, Xanthium strumarium
Method in brief: as §1

[4] = system: corn; experiment: Test B pre/postemergence corn; type: in vivo, Zea mays
Method in brief: as §1

[5] = system: crabgrass; experiment: Test B pre/postemergence crabgrass; type: in vivo, Digitaria sanguinalis
Method in brief: as §1

[6] = system: giant foxtail; experiment: Test B pre/postemergence giant foxtail; type: in vivo, Setaria faberii
Method in brief: as §1

[7] = system: morningglory; experiment: Test B pre/postemergence morningglory; type: in vivo, Ipomoea hederacea
Method in brief: as §1

[8] = system: pigweed; experiment: Test B pre/postemergence pigweed; type: in vivo, Amaranthus retroflexus
Method in brief: as §1

[9] = system: rape; experiment: Test B pre/postemergence rape; type: in vivo, Brassica napus
Method in brief: as §1

[10] = system: soybean; experiment: Test B pre/postemergence soybean; type: in vivo, Glycine max
Method in brief: as §1

[11] = system: sugar beet; experiment: Test B pre/postemergence sugar beet; type: in vivo, Beta vulgaris
Method in brief: as §1

[12] = system: velvetleaf; experiment: Test B pre/postemergence velvetleaf; type: in vivo, Abutilon theophrasti
Method in brief: as §1

[13] = system: wild oat; experiment: Test B pre/postemergence wild oat; type: in vivo, Avena fatua
Method in brief: as §1

[14] = system: rice; experiment: Test B flood test rice; type: in vivo, Oryza sativa
Method in brief: (§2)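 Each value is a visual injury score relative to controls, with 10 meaning complete control and 0 no effect. Evaluation took place twelve to sixteen days after the 2-leaf-stage plants were treated and kept in the greenhouse.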

[15] = system: duck salad; experiment: Test B flood test duck salad; type: in vivo, Heteranthera limosa
Method in brief: as §2

[16] = system: bamyardgrass; experiment: Test B flood test barnyardgrass; type: in vivo, Echinochloa crus-galli
Method in brief: as §2

[17] = Postemergence, Rate 62 g/ha, scale of 0 to 10, 0 is no effect, 10 is complete control
[18] = Postemergence, Rate 125 g/ha, scale 0 to 10, 0 is no effect, 10 is complete control
[19] = Postemergence, Rate 500 g/ha, scale 0 to 10, 0 is no effect, 10 is complete control
[20] = Preemergence, Rate 62 g/ha, scale of 0 to 10 where 0 is no effect and 10 is complete control
[21] = Preemergence, Rate 125 g/ha, scale 0 to 10, 0 is no effect, 10 is complete control
[22] = Preemergence, Rate 500 g/ha, scale of 0 to 10 where 0 is no effect and 10 is complete control
[23] = Rate 250 g/ha, Postemergence, scale of 0 to 10 where 0 is no effect and 10 is complete control
[24] = Rate 62 g/ha, flood test species, Pre-emergence, visual evaluation after twelve to sixteen days
[25] = Rate 125 g/ha, under heading Pre-emergence, flood test species, visual evaluation after twelve to sixteen days
[26] = Rate 250 g/ha, Pre-emergence (flood test species), scale 0 to 10, 0 is no effect, 10 is complete control
[27] = Rate 500 g/ha, Pre-emergence section of Table B, 0 to 10 scale (0 no effect, 10 complete control)

## CC(C)N(C(=O)n1oc(=O)n(CC2CCC2)c1=O)c1ccc(F)cc1F [Compound 521]
[1]; [17]
  Blackgrass plant response rating: 2
[1]; [18]
  Blackgrass plant response rating: 2
[1]; [19]
  Plant response rating, Blackgrass: 9
[1]; [20]
  Plant response rating, Blackgrass: 0
[1]; [21]
  Blackgrass plant response rating: 0
[1]; Preemergence, Rate 250 g/ha
  Blackgrass plant response rating (0 to 10 scale): 0
[1]; [22]
  Blackgrass plant response rating: 3
[1]; [23]
  Plant response rating, Blackgrass: 7
[2]; [17]
  B. signalgrass plant response rating: 0
[2]; [18]
  B. signalgrass plant response rating: 0
[2]; [19]
  Plant response rating, B. signalgrass: 3
[2]; [20]
  Plant response rating, B. signalgrass: 0
[2]; [21]
  B. signalgrass plant response rating: 0
[2]; Preemergence, Rate 250 g/ha
  B. signalgrass plant response rating (0 to 10 scale, 0 is no effect, 10 is complete control): 0
[2]; Preemergence, Rate 500 g/ha, scale 0 to 10, 0 is no effect, 10 is complete control
  B. signalgrass plant response rating: 9
[2]; [23]
  Plant response rating, B. signalgrass: 0
[3]; [17]
  Cocklebur plant response rating: 0
[3]; [18]
  Cocklebur plant response rating: 0
[3]; [19]
  Plant response rating, Cocklebur: 0
[3]; [20]
  Plant response rating, Cocklebur: 0
[3]; [21]
  Cocklebur plant response rating: 0
[3]; Preemergence, Rate 250 g/ha
  Cocklebur plant response rating (0 to 10 scale): 0
[3]; [22]
  Cocklebur plant response rating: 0
[3]; [23]
  Plant response rating, Cocklebur: 0
[4]; [17]
  Corn plant response rating: 0
[4]; [18]
  Corn plant response rating: 0
[4]; [19]
  Plant response rating, Corn: 0
[4]; [20]
  Plant response rating, Corn: 0
[4]; [21]
  Corn plant response rating: 0
[4]; Preemergence, Rate 250 g/ha
  Corn plant response rating (0 to 10 scale): 0
[4]; [22]
  Corn plant response rating: 3
[4]; [23]
  Plant response rating, Corn: 0
[5]; [17]
  Crabgrass plant response rating: 2
[5]; [18]
  Crabgrass plant response rating: 4
[5]; [19]
  Plant response rating, Crabgrass: 10
[5]; [20]
  Plant response rating, Crabgrass: 10
[5]; [21]
  Crabgrass plant response rating: 10
[5]; Preemergence, Rate 250 g/ha
  Crabgrass plant response rating (0 to 10 scale): 10
[5]; [22]
  Crabgrass plant response rating: 10
[5]; [23]
  Plant response rating, Crabgrass: 10
[6]; [17]
  Giant foxtail plant response rating: 4
[6]; [18]
  Giant foxtail plant response rating: 8
[6]; [19]
  Plant response rating, Giant foxtail: 9
[6]; [20]
  Plant response rating, Giant foxtail: 10
[6]; [21]
  Giant foxtail plant response rating: 10
[6]; Preemergence, Rate 250 g/ha
  Giant foxtail plant response rating (0 to 10 scale): 10
[6]; [22]
  Giant foxtail plant response rating: 10
[6]; [23]
  Plant response rating, Giant foxtail: 9
[7]; [17]
  Morningglory plant response rating: 3
[7]; [18]
  Morningglory plant response rating: 4
[7]; [19]
  Plant response rating, Morningglory: 5
[7]; [20]
  Plant response rating, Morningglory: 0
[7]; [21]
  Morningglory plant response rating: 0
[7]; Preemergence, Rate 250 g/ha
  Morningglory plant response rating (0 to 10 scale): 0
[7]; [22]
  Morningglory plant response rating: 0
[7]; [23]
  Plant response rating, Morningglory: 3
[8]; [17]
  Redroot pigweed plant response rating: 0
[8]; [18]
  Redroot pigweed plant response rating: 0
[8]; [19]
  Plant response rating, Redroot pigweed: 4
[8]; [20]
  Plant response rating, Redroot pigweed: 0
[8]; [21]
  Redroot pigweed plant response rating: 0
[8]; Preemergence, Rate 250 g/ha
  Redroot pigweed plant response rating (0 to 10 scale): 0
[8]; [22]
  Redroot pigweed plant response rating: 0
[8]; [23]
  Plant response rating, Redroot pigweed: 0
[9]; [17]
  Rape plant response rating: 0
[9]; [18]
  Rape plant response rating: 0
[9]; [19]
  Plant response rating, Rape: 3
[9]; [20]
  Plant response rating, Rape: 0
[9]; [21]
  Rape plant response rating: 0
[9]; Preemergence, Rate 250 g/ha
  Rape plant response rating (0 to 10 scale): 2
[9]; [22]
  Rape plant response rating: 2
[9]; [23]
  Plant response rating, Rape: 2
[10]; [17]
  Soybean plant response rating: 4
[10]; [18]
  Soybean plant response rating: 4
[10]; [19]
  Plant response rating, Soybean: 5
[10]; [20]
  Plant response rating, Soybean: 0
[10]; [21]
  Soybean plant response rating: 0
[10]; Preemergence, Rate 250 g/ha
  Soybean plant response rating (0 to 10 scale): 0
[10]; [22]
  Soybean plant response rating: 0
[10]; [23]
  Plant response rating, Soybean: 5
[11]; [17]
  Sugarbeets plant response rating: 0
[11]; [18]
  Sugarbeets plant response rating: 0
[11]; [19]
  Plant response rating, Sugarbeets: 4
[11]; [20]
  Plant response rating, Sugarbeets: 0
[11]; [21]
  Sugarbeets plant response rating: 0
[11]; Preemergence, Rate 250 g/ha
  Sugarbeets plant response rating (0 to 10 scale): 3
[11]; [22]
  Sugarbeets plant response rating: 3
[11]; [23]
  Plant response rating, Sugarbeets: 0
[12]; [17]
  Velvetleaf plant response rating: 0
[12]; [18]
  Velvetleaf plant response rating: 0
[12]; [19]
  Plant response rating, Velvetleaf: 3
[12]; [20]
  Plant response rating, Velvetleaf: 0
[12]; [21]
  Velvetleaf plant response rating: 0
[12]; Preemergence, Rate 250 g/ha
  Velvetleaf plant response rating (0 to 10 scale): 2
[12]; [22]
  Velvetleaf plant response rating: 3
[12]; [23]
  Plant response rating, Velvetleaf: 2
[13]; [17]
  Wild oats plant response rating: 0
[13]; [18]
  Wild oats plant response rating: 0
[13]; [19]
  Plant response rating, Wild oats: 2
[13]; [20]
  Plant response rating, Wild oats: 0
[13]; [21]
  Wild oats plant response rating: 0
[13]; Preemergence, Rate 250 g/ha
  Wild oats plant response rating (0 to 10 scale): 0
[13]; [22]
  Wild oats plant response rating: 2
[13]; [23]
  Plant response rating, Wild oats: 0
[14]; [24]
  Plant response rating, Rice (0 to 10 scale, 0 is no effect, 10 is complete control): 0
[14]; [25]
  Rice plant response rating (0 to 10 scale, 0 is no effect, 10 is complete control): 0
[14]; [26]
  Rice plant response rating: 0
[14]; [27]
  Rice plant response rating: 0
[15]; [24]
  Plant response rating, Ducksalad (0 to 10 scale, 0 is no effect, 10 is complete control): 0
[15]; [25]
  Ducksalad plant response rating (0 to 10 scale, 0 is no effect, 10 is complete control): 0
[15]; [26]
  Ducksalad plant response rating: 0
[15]; [27]
  Ducksalad plant response rating: 0
[16]; [24]
  Plant response rating, Barnyardgrass (0 to 10 scale, 0 is no effect, 10 is complete control): 0
[16]; [25]
  Barnyardgrass plant response rating (0 to 10 scale, 0 is no effect, 10 is complete control): 0
[16]; [26]
  Barnyardgrass plant response rating: 0
[16]; [27]
  Barnyardgrass plant response rating: 0
